Results as given in ChEMBL document CHEMBL1132652, “Design and synthesis of isoxazoline derivatives as factor Xa inhibitors. 2” (J Med Chem, 1999).

Experiments:
Coagulation factor X = Coagulation factor X (Homo sapiens, UniProt P00742); assay: Binding affinity towards human purified Coagulation factor Xa (FXa)
Prothrombin = Prothrombin (Homo sapiens, UniProt P00734); assay: Binding affinity towards thrombin obtained from human purified enzymes
Serine protease 1 = Serine protease 1 (Homo sapiens, UniProt P07477); assay: Binding affinity towards trypsin obtained from human purified enzymes
[1] = In vivo clearance (5 mg/kg) was determined in rabbits; format: ADME, organism-based, Oryctolagus cuniculus; details: rabbit
[2] = The plasma half life (5 mg/kg) was measured in rabbits; format: ADME, organism-based, Oryctolagus cuniculus; details: rabbit
Oryctolagus cuniculus = species: Oryctolagus cuniculus; assay: Inhibitory activity against thrombus formation in rabbit using Arterio-Venous Shunt Thrombosis Model; format: functional

Sequence of Coagulation factor X (P00742 41-179 limits assumed): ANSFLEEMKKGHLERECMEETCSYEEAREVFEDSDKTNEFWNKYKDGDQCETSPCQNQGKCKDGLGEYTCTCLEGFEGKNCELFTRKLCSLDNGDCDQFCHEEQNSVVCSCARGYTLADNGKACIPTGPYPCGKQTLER
Sequence of Coagulation factor X (P00742 235-488 limits assumed): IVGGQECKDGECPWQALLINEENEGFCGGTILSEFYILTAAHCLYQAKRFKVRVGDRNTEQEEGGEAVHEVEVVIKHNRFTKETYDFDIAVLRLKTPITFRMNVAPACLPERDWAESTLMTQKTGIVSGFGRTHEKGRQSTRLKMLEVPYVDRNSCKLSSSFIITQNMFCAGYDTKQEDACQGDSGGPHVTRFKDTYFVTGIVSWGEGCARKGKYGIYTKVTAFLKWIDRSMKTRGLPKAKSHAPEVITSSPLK
Sequence of Serine protease 1 (P07477 whole entry): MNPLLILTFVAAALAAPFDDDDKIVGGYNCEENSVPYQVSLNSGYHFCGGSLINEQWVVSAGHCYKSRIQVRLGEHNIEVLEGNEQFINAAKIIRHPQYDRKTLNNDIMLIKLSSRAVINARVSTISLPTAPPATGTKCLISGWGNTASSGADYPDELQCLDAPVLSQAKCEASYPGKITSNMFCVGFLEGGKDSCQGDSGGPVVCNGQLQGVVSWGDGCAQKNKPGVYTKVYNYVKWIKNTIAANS

Ki (Coagulation factor X) | Ki (Prothrombin) | Ki (Serine protease 1) | clearance [1] | half-life [2] | Structure (SMILES) | ID50 (Oryctolagus cuniculus)
13 nM | 4000 nM | 113 nM |  |  | CCCCOCC1(C(=O)Nc2ccc(-c3ccccc3S(N)(=O)=O)cc2)CC(c2cccc(C(=N)N)c2)=NO1 (stereo not given) | 
7.2 nM | 3900 nM | 83 nM |  |  | N=C(N)c1cccc(C2=NOC(C(=O)Nc3ccc(-c4ccccc4S(N)(=O)=O)cc3)C2)c1 (stereo not given) | 
1.6 nM | 2900 nM | 91 nM |  |  | N=C(N)c1cccc(C2=NOC(Cn3ncnn3)(C(=O)Nc3ccc(-c4ccccc4S(N)(=O)=O)cc3)C2)c1 (stereo not given) | 
20 nM | > 21000 nM | 630 nM | 4.67 mL/min/kg | 94.2 min | N=C(N)c1cccc(C2=NOC(CC(=O)O)(C(=O)Nc3ccc(-c4ccccc4S(N)(=O)=O)cc3)C2)c1.O=C(O)C(F)(F)F (stereo not given) | >4.8 µM/h/kg
3.5 nM | 3100 nM | 70 nM |  |  | CCOCC1(C(=O)Nc2ccc(-c3ccccc3S(N)(=O)=O)cc2)CC(c2cccc(C(=N)N)c2)=NO1 (stereo not given) [listing 1 of 2 here] | 
4.3 nM | 14000 nM | 330 nM |  |  | COC(=O)CC1(C(=O)Nc2ncc(-c3ccccc3S(N)(=O)=O)cn2)CC(c2cccc(C(=N)N)c2)=NO1 (stereo not given) | 
1.3 nM | 7700 nM | 500 nM |  |  | N=C(N)c1cccc(C2=NOC(Cn3cnnn3)(C(=O)Nc3ncc(-c4ccccc4S(N)(=O)=O)cn3)C2)c1 (stereo not given) [listing 1 of 2 here] | 
0.92 nM | 100 nM | 49 nM |  |  | CNS(=O)(=O)c1ccccc1-c1ccc(NC(=O)C2(Cn3cnnn3)CC(c3cccc(C(=N)N)c3)=NO2)cc1 (stereo not given) | 
0.11 nM | 900 nM | 18 nM | 8.33 mL/min/kg | 42 min | N=C(N)c1cccc(C2=NOC(Cn3cnnn3)(C(=O)Nc3ccc(-c4ccccc4S(N)(=O)=O)cn3)C2)c1 (stereo not given) [listing 1 of 2 here] | 0.032 µM/h/kg
8.5 nM | 1300 nM | 80 nM |  |  | N=C(N)c1cccc(C2=NOC(Cc3ccccc3)(C(=O)Nc3ccc(-c4ccccc4S(N)(=O)=O)cc3)C2)c1 (stereo not given) | 
11 nM | 5800 nM | 120 nM |  |  | CC1(C(=O)Nc2ccc(-c3ccccc3S(N)(=O)=O)cc2)CC(c2cccc(C(=N)N)c2)=NO1 (stereo not given) | 
4.3 nM | 4500 nM | 120 nM |  |  | CC(C)OCC1(C(=O)Nc2ccc(-c3ccccc3S(N)(=O)=O)cc2)CC(c2cccc(C(=N)N)c2)=NO1 (stereo not given) | 
3.4 nM | 2400 nM | 70 nM |  |  | COCC1(C(=O)Nc2ccc(-c3ccccc3S(N)(=O)=O)cc2)CC(c2cccc(C(=N)N)c2)=NO1 (stereo not given) | 
3.5 nM | 2000 nM | 72 nM |  |  | CCS(=O)(=O)CC1(C(=O)Nc2ccc(-c3ccccc3S(N)(=O)=O)cc2)CC(c2cccc(C(=N)N)c2)=NO1 (stereo not given) | 
9.9 nM | 16000 nM | 390 nM |  |  | COCC1(C(=O)Nc2ncc(-c3ccccc3S(N)(=O)=O)cn2)CC(c2cccc(C(=N)N)c2)=NO1 (stereo not given) | 
2.8 nM | 8400 nM | 40 nM |  |  | CCOCC1(C(=O)Nc2ccc(-c3ccccc3S(N)(=O)=O)cn2)CC(c2cccc(C(=N)N)c2)=NO1 (stereo not given) [listing 1 of 2 here] | 
1.7 nM | 3400 nM | 47 nM |  |  | N=C(N)c1cccc(C2=NOC(Cn3cncn3)(C(=O)Nc3ccc(-c4ccccc4S(N)(=O)=O)cc3)C2)c1 (stereo not given) | 
23 nM | 6100 nM | 310 nM |  |  | N=C(N)c1cccc(C2=NOC(C(=O)Nc3ccc(-c4ccccc4S(N)(=O)=O)cc3)(C(F)(F)F)C2)c1 (stereo not given) | 
4.1 nM | 8100 nM | 41 nM |  |  | CC1(C(=O)Nc2ccc(-c3ccccc3S(N)(=O)=O)cn2)CC(c2cccc(C(=N)N)c2)=NO1 (stereo not given) | 
0.17 nM | 1100 nM | 31 nM |  |  | N=C(N)c1cccc(C2=NOC(Cn3cnnn3)(C(=O)Nc3ccc(-c4ccccc4S(N)(=O)=O)cn3)C2)c1 (stereo not given) [listing 2 of 2 here] | 

Ki (Coagulation factor X) | Ki (Prothrombin) | Ki (Serine protease 1) | clearance [1] | half-life [2] | Structure (SMILES) | ID50 (Oryctolagus cuniculus)
1 nM | 300 nM | 200 nM |  |  | Cc1cc(-c2ccccc2S(N)(=O)=O)ccc1NC(=O)C1(Cn2cnnn2)CC(c2cccc(C(=N)N)c2)=NO1 (stereo not given) | 
0.44 nM | 500 nM | 110 nM |  |  | N=C(N)c1cccc(C2=NOC(Cn3cnnn3)(C(=O)Nc3ccc(-c4ccccc4S(N)(=O)=O)cc3F)C2)c1 (stereo not given) | 
37 nM | 3900 nM | 140 nM |  |  | CC(C)COCC1(C(=O)Nc2ccc(-c3ccccc3S(N)(=O)=O)cc2)CC(c2cccc(C(=N)N)c2)=NO1 (stereo not given) | 
3.3 nM | 2100 nM | 86 nM | 8.17 mL/min/kg | 37.8 min | CCOCC1(C(=O)Nc2ccc(-c3ccccc3S(N)(=O)=O)cc2)CC(c2cccc(C(=N)N)c2)=NO1 (stereo not given) [listing 2 of 2 here] | 0.74 µM/h/kg
0.52 nM | 400 nM | 45 nM | 5 mL/min/kg | 36 min | N=C(N)c1cccc(C2=NOC(Cn3cnnn3)(C(=O)Nc3ccc(-c4ccccc4S(N)(=O)=O)cc3)C2)c1 (stereo not given) [listing 1 of 2 here] | 0.035 µM/h/kg
0.8 nM | 5000 nM | 25 nM | 21.7 mL/min/kg | 36 min | CCOCC1(C(=O)Nc2ccc(-c3ccccc3S(N)(=O)=O)cn2)CC(c2cccc(C(=N)N)c2)=NO1 (stereo not given) [listing 2 of 2 here] | 0.8 µM/h/kg
5.3 nM | 13000 nM | 290 nM |  |  | CCS(=O)(=O)CC1(C(=O)Nc2ncc(-c3ccccc3S(N)(=O)=O)cn2)CC(c2cccc(C(=N)N)c2)=NO1 (stereo not given) | 
2.9 nM | 4300 nM | 90 nM |  |  | CCCOCC1(C(=O)Nc2ccc(-c3ccccc3S(N)(=O)=O)cc2)CC(c2cccc(C(=N)N)c2)=NO1 (stereo not given) | 
2.4 nM | 10000 nM | 350 nM |  |  | CCSCC1(C(=O)Nc2ncc(-c3ccccc3S(N)(=O)=O)cn2)CC(c2cccc(C(=N)N)c2)=NO1 (stereo not given) | 
1.7 nM | 5800 nM | 72 nM |  |  | CCS(=O)(=O)CC1(C(=O)Nc2ccc(-c3ccccc3S(N)(=O)=O)cn2)CC(c2cccc(C(=N)N)c2)=NO1 (stereo not given) | 
 | 3100 nM | 110 nM | 3.5 mL/min/kg | 55.2 min | COC(=O)CC1(C(=O)Nc2ccc(-c3ccccc3S(N)(=O)=O)cc2)CC(c2cccc(C(=N)N)c2)=NO1.O=C(O)C(F)(F)F (stereo not given) | 0.6 µM/h/kg
1.6 nM | 900 nM | 91 nM |  |  | N=C(N)c1cccc(C2=NOC(Cn3cnnn3)(C(=O)Nc3ccc(-c4ccccc4S(N)(=O)=O)cc3)C2)c1 (stereo not given) [listing 2 of 2 here] | 
0.15 nM | 300 nM | 47 nM | 13.3 mL/min/kg | 48 min | N=C(N)c1cccc(C2=NOC(Cn3cnnn3)(C(=O)Nc3ccc(-c4ccccc4S(N)(=O)=O)cc3Cl)C2)c1.O=C(O)C(F)(F)F (stereo not given) | 0.25 µM/h/kg
6.8 nM | > 21000 nM | 330 nM |  |  | CCOCC1(C(=O)Nc2ncc(-c3ccccc3S(N)(=O)=O)cn2)CC(c2cccc(C(=N)N)c2)=NO1 (stereo not given) | 
2.3 nM | 3900 nM | 52 nM |  |  | COC(=O)CC1(C(=O)Nc2ccc(-c3ccccc3S(N)(=O)=O)cn2)CC(c2cccc(C(=N)N)c2)=NO1 (stereo not given) | 
2.5 nM | 7400 nM | 45 nM |  |  | COCC1(C(=O)Nc2ccc(-c3ccccc3S(N)(=O)=O)cn2)CC(c2cccc(C(=N)N)c2)=NO1 (stereo not given) | 
0.32 nM | 3000 nM | 120 nM |  |  | N=C(N)c1cccc(C2=NOC(Cn3cnnn3)(C(=O)Nc3ncc(-c4ccccc4S(N)(=O)=O)cn3)C2)c1 (stereo not given) [listing 2 of 2 here] | 
2.1 nM | 70 nM | 49 nM |  |  | CCCNS(=O)(=O)c1ccccc1-c1ccc(NC(=O)C2(Cn3cnnn3)CC(c3cccc(C(=N)N)c3)=NO2)cc1 (stereo not given) | 
2.2 nM | 2800 nM | 54 nM |  |  | CCSCC1(C(=O)Nc2ccc(-c3ccccc3S(N)(=O)=O)cn2)CC(c2cccc(C(=N)N)c2)=NO1 (stereo not given) | 
5 nM | 4400 nM | 98 nM |  |  | COCCC1(C(=O)Nc2ccc(-c3ccccc3S(N)(=O)=O)cc2)CC(c2cccc(C(=N)N)c2)=NO1 (stereo not given) | 
